Test results reported in US20150051273A1, “USE OF DELPHINIDIN AGAINST STAPHYLOCOCCUS AUREUS” (Sapiotec GmbH, priority 2012, published 2015).
“Also recorded” adds a separate entry of the source.

Experiments:
[1] = tested on: Klebsiella pneumoniae ATCC700603; assay: Bacterial growth, static model (visual evaluation, vitality test); assay type: cell-based; conditions: K. pneumoniae; RPMI-1640, 37° C., 48 hours
From the text: (§1) Klebsiella pneumoniae ATCC700603 biofilm-positive clinical isolate from urine from an ESBL+(Extended Spectrum Beta-Lactamase) hospital patient (reference strain);
(§2) Investigating the effect of delphinidin on the bacterial growth and the bacterial formation of biofilm took place by means of • a) visual evaluation of bacterial growth (static model), • b) vitality test (scrape on blood agar plates) • c) analysis of the biofilm in a static model by means of the crystal violet assay as described above in section 1.
(§3) The control used was sterile RPMI-1640. Then delphinidin in solution in RPMI-1640 was added, from a dilution series produced beforehand, and the cell culture dish was incubated at 37° C. for 48 hours, the visual outcome thereof being shown in FIG. 2. The color change from (phenol) red to yellow correlates with the extent of the bacterial growth.
(§4) Scrapes of the bacteria from the culture dish are shown in FIG. 3 (P. aeruginosa ATCC9027), 4 (K. pneumoniae ATCC700603), 5 (MRSA2318), 6 (MRSA2855) and 7 (MSSA1155). “ST 26.1.11” and “ST 28.1.11” in the case of the scrapes on the agar plates refers to the respective scraping date of the duplicated experiments.

[2] = tested on: Klebsiella pneumoniae ATCC700603; assay: Biofilm formation, static model, crystal violet assay; assay type: cell-based; conditions: K. pneumoniae, RPMI-1640, 37° C., 48 hours
Protocol: as §1
The growth and the analysis of the biofilm were determined in a static model by means of the crystal violet assay according to basic protocol 1 in Current Protocols in Microbiology 1B.1.2-1B.1.4 “MICROTITER PLATE BIOFILM ASSAY” [published online August 2011 in Wiley Online Library (wileyonlinelibrary.com) DOI: 10.1002/9780471729259. mc01b01s22]. […]
(§5) With the same experimental setup, the biofilm was analyzed by means of the crystal violet test as described above in section 1, the outcome thereof, after 48 hours of incubation and the crystal violet test, is shown overall in FIG. 8, and in FIGS. 9-13 in each case after measurement of the optical density, processed graphically for the respective delphinidin concentrations in the case of the individual bacterial strains (FIG. 9: P. aeruginosa ATCC9027, FIG. 10: K. pneumoniae ATCC700603, FIG. 11: MRSA2318, FIG. 12: MRSA2855, FIG. 13: MSSA1155).

[3] = Stability tests in aqueous solution (delphinidin content by HPLC); assay type: physicochemical; conditions: 0.9% NaCl solution, 37° C., dark, start 1.584 mg/ml (complex) or 0.0216 mg/ml (uncomplexed)
Protocol: The delphinidin chloride content of the delphinidin-containing solutions was determined using a reversed-phase HPLC technique similar to that already described above. The following reagents were employed here:
The solutions were prepared at room temperature and then stored in closed vials in the dark at 37° C.
The delphinidin content was determined after 1, 2, 3, and 4 h. The table below reports the content found, as a percentage of the abovementioned starting concentration.

[4] = tested on: Pseudomonas aeruginosa ATCC9027; assay: Biofilm formation, static model, crystal violet assay; assay type: cell-based; conditions: P. aeruginosa, RPMI-1640, 37° C., 48 hours
Protocol: (§6) The strains selected were as follows: • Pseudomonas aeruginosa ATCC9027, biofilm-positive clinical isolate from an outer ear infection (reference strain);
(§7) The growth and the analysis of the biofilm were determined in a static model by means of the crystal violet assay according to basic protocol 1 in Current Protocols in Microbiology 1B.1.2-1B.1.4 “MICROTITER PLATE BIOFILM ASSAY” [published online August 2011 in Wiley Online Library (wileyonlinelibrary.com) DOI: 10.1002/9780471729259. mc01b01s22].
as §2, with “1. […]” for “1.”
as §5

[5] = tested on: Pseudomonas aeruginosa ATCC9027; assay: Bacterial growth, static model (visual evaluation, vitality test); assay type: cell-based; conditions: P. aeruginosa; RPMI-1640, 37° C., 48 hours
From the text: as §6, §2, §3, §4

[6] = tested on: Staphylococcus aureus MRSA2318, MRSA2855, MSSA1155; assay: Biofilm formation, static model, crystal violet assay; assay type: cell-based; conditions: S. aureus (both MSSA and MRSA), RPMI-1640, 37° C., 48 hours
From the text: (§8) Staphylococcus aureus MRSA2318 biofilm-positive clinical isolate from tracheal secretion of 22.04.2009 (Würzburg University Hospital, neurosurgical clinic and polyclinic I, intensive therapy unit); • Staphylococcus aureus MRSA2855 biofilm-positive clinical isolate from blood culture of 22.04.2009 (Würzburg University Hospital, medical clinic and polyclinic I, ITU); • Staphylococcus aureus MSSA1155 biofilm-positive clinical isolate from 27.04.2004 from abdominal cavity scrape (Würzburg University clinic, urology, unit B).
as §7, §2
The control used was sterile RPMI-1640. […]

[7] = tested on: Staphylococcus aureus MRSA2318, MRSA2855, MSSA1155; assay: Bacterial growth, static model (visual evaluation, vitality test); assay type: cell-based; conditions: S. aureus (both MSSA and MRSA); RPMI-1640, 37° C., 48 hours
From the text: as §8, §2, §3
Scrapes of the bacteria from the culture dish are shown in FIG. 3 (P. aeruginosa ATCC9027), 4 (K. pneumoniae ATCC700603), 5 (MRSA2318), 6 (MRSA2855) and 7 (MSSA1155). […]

[8] = Solubility of delphinidin chloride in aqueous cyclodextrin solutions; assay type: physicochemical; conditions: pure water, cyclodextrin concentration 0; excess delphinidin chloride, 30° C., 20 h, dark, 0.22 μm filter
Protocol: In this example, the complexing of delphinidin by different cyclodextrins and the solubility of the complex in aqueous solution are investigated.
Neutral aqueous solutions were prepared, containing 10 wt % of the respective cyclodextrin.
5 ml each of the aqueous cyclodextrin solutions and of pure water were introduced into glass flasks. Then an excess of delphinidin chloride was added.
The suspensions were stirred in the dark at 30° C. for 20 h. This was followed by filtration through a membrane filter with a 0.22 μm pore size.

| Structure (SMILES) | Effect on growth [1] | Effect on formation of biofilm [2] | Delphinidin content as a percentage of the starting concentration ([3]; 0 h) | Delphinidin content as a percentage of the starting concentration ([3]; 1 h) | Delphinidin content as a percentage of the starting concentration ([3]; 2 h) | Delphinidin content as a percentage of the starting concentration ([3]; 3 h) | Delphinidin content as a percentage of the starting concentration ([3]; 4 h) | Effect on formation of biofilm [4] | Effect on growth [5] | Effect on formation of biofilm [6] | Effect on growth [7] | Delphinidin chloride (solubility achievable) [8] |
| --- | --- | --- | --- | --- | --- | --- | --- | --- | --- | --- | --- | --- |
| Oc1cc(O)c2cc(O)c(-c3cc(O)c(O)c(O)c3)[o+]c2c1 [Delphinidin] | no inhibiting effect | no inhibiting effect; also recorded: appears still to be being stimulated | 100% | 8.3% | 6.5% | 5.6% | 5.1% | no inhibiting effect | no inhibiting effect | inhibiting effect | inhibiting effect |  |
| Oc1cc(O)c2cc(O)c(-c3cc(O)c(O)c(O)c3)[o+]c2c1.[Cl-] [Delphinidin chloride, delphinidin chloride] |  |  |  |  |  |  |  |  |  |  |  | 0.07 mg/mL |
